We go through 13 compounds from US20220033407A1, “N-(pyridin-2-ylsulfonyl)cyclopropanecarboxamide Derivatives and their Use in the Treatment of Disease” (NOVARTIS AG, priority 2018, published 2022).

Experiment [1] has as its target T1, delF508-CFTR-HRP (Homo sapiens, UniProt P13569, DEL508-508).
T1 construct: expressed in transfected cells
The experiment can be described thus: Measurement of delF508-CFTR-HRP surface expression in CFBE41o- cells (HRP luminescence).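 For DelF508-CFTR-HRP Amax %: percent efficacy relative to a reference CFTR corrector compound.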 Format: cell-based. The conditions noted are these: for Emax: CFBE41o-, read-out: DelF508-CFTR-HRP Amax %; for EC50: mean of at least two replicates. An outline of the steps: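 EC50 derived by logistic regression of triplicate surface-HRP luminescence, plate-normalized to the lowest-concentration median. Doxycycline (500 ng/mL, 48 h) induced delF508-CFTR-HRP in CFBE41o- cells; compounds then applied 24 h at 37° C, 10 μM top, 3-fold over 10 points.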

The target in experiment [2] is T2, delF508-CFTR (Homo sapiens, UniProt P13569, DEL508-508).
T2 construct: functional activity of the CFTR channel (Chloride ion transport) in patient derived primary human bronchial epithelial cells; host or cells: patient-derived primary human bronchial epithelial cells (HBECs), delF508-CFTR
The experiment is described as follows: delF508-CFTR functional activity in primary human bronchial epithelial cells (HBECs), Multi-Transepithelial Clamp Circuit (MTECC-24) assay, equivalent short circuit current. The format is cell-based. Particulars: primary CF HBECs; for MTECC24 CFHBEC-Amax %: relative to reference combination 2 μM 3-(6-(1-(2,2-difluorobenzo[d][1,3]dioxol-5-yl)cyclopropane-1-carboxamido)-3-methylpyridin-2-yl)benzoic acid (24 h) + 0.5 μM N-(2,4-di-tert-butyl-5-hydroxyphenyl)-4-oxo-1,4-dihydroquinoline-3-carboxamide; for EC50: test compound added 24 h before assay, potentiator (S)-3-amino-6-methoxy-N-(3,3,3-trifluoro-2-hydroxy-2-methylpropyl)-5-(trifluoromethyl)picolinamide present at assay, mean of at least two replicates, read-out: MTECC24 CFHBEC-EC50. The source says: Measurement of delF508-CFTR Functional Activity in Primary Human Bronchial Epithelial Cells (HBECs) Using Multi-Transepithelial Clamp Circuit (MTECC-24) Assay
This assay measures the functional activity of the CFTR channel (Chloride ion transport) in patient derived primary human bronchial epithelial cells with forskolin activation and in the presence of the CFTR corrector wherein the corrector is a compound of the invention and the potentiator is (S)-3-amino-6-methoxy-N-(3,3,3-trifluoro-2-hydroxy-2-methylpropyl)-5-(trifluoromethyl)picolinamide.
Primary human delF508-CFTR bronchial epithelial cells were purchased from Asterand and cultured according to previously established methods (Fulcher et al. (2005) Methods Mol Med 107: 183-206). Briefly, vendor supplied cells were rapidly defrosted and added to a T175 flask in 50 mL growth media (Lonza BEBM media with Lonza BEGM singlequots). Media was replaced after 24 h and then cells were fed every other day until cells were 80-90% confluent, at which point cells were cryopreserved. These P1 vials were thawed at 37° C. as needed and added to T175 flasks in 50 mL growth media at 5×10^5 cells/flask. Media was replaced after 24 h, and then cells were fed every other day until 80-90% confluent. Cells were lifted with 5 mL Accutase at 37° C. for 5 minutes, centrifuged at 1000 rpms for 5 min (300 g), and resuspended in differentiation media (50% BEBM in DMEM, BEGM singlequots, all trans retinoic acid (5×10·8M)). Cells were then counted and cell suspension was added to collagen coated inserts at 3×10^4 cells/insert in 0.15 mL with 0.5 mL differentiation media on the basolateral side.
Apical and basolateral media were replaced on alternate days, and following day 7 (or when confluent plus 2 days), air liquid interface was established for approximately two weeks by removal of apical media. One day prior to use on the MTECC24 system (EP-Devices, EP Design, Belgium), 0.15 mL of warmed (37° C.) PBS was added to the apical surface of the cultures and returned to humidifier (37° C., 5% CO2 incubator) for 30 min before aspirating the apical surface to remove any mucus.
Compound treatments were then prepared. Compound dilutions, typically a 10 point concentration response with 1 in 3 dilution steps, were made in 100% DMSO before dilution 1 in 1000 into differentiation medium with a final DMSO concentration of 0.1% or 0.2% for the study. Compound containing medium was then transferred into the wells of a 24 well plate at 0.5 mL per well and warmed for 30 min in a 37° C. incubator prior to transferring washed inserts into the compound containing plates. Cells were incubated in compound containing medium (basolateral only) for 24 h prior to measurement in the MTECC24 system.
Following 24 hr treatment, compound dilutions were prepared again, diluted 1 in 1000 into 37° C. assay medium (F-12 Coon's modified, 20 mM HEPES pH7.4 with TRIS Base, No FCS or bicarbonate). Cells which were treated for 24 h with test compound were then transferred into plates containing 0.75 mL compound treatment in assay medium (basolateral) and 0.25 mL of the compound containing assay medium was added to the apical surface. The plates were then transferred to the heated plate compartments of the MTECC24 system for 45 min prior to measurements (this can also be done in a non-CO2 37° C. humidified incubator). Basolateral temperature should not exceed 36.5° C. and apical temperature should be approximately 35.5° C.
Modulators were added sequentially as follows while the MTECC24 instrument recorded the equivalent short circuit current (Ieq)
Prior to dilution into F-12 medium the stocks are as follows: Amiloride stock is 10 mM in H2O
Forskolin Stock is 10 mM in 100% DMSO
(S)-3-amino-6-methoxy-N-(3,3,3-trifluoro-2-hydroxy-2-methylpropyl)-5-(trifluoromethyl)picolinamide is 0.5 mM stock in 100% DMSO INH-172 (4-[[4-Oxo-2-thioxo-3-[3-trifluoromethyl)phenyl]-5-thiazolidinylidene]methyl]benzoic acid) stock is 30 mM in 100% DMSO […]

T1 sequence (P13569 with tags, fused parts or gaps DEL508-508): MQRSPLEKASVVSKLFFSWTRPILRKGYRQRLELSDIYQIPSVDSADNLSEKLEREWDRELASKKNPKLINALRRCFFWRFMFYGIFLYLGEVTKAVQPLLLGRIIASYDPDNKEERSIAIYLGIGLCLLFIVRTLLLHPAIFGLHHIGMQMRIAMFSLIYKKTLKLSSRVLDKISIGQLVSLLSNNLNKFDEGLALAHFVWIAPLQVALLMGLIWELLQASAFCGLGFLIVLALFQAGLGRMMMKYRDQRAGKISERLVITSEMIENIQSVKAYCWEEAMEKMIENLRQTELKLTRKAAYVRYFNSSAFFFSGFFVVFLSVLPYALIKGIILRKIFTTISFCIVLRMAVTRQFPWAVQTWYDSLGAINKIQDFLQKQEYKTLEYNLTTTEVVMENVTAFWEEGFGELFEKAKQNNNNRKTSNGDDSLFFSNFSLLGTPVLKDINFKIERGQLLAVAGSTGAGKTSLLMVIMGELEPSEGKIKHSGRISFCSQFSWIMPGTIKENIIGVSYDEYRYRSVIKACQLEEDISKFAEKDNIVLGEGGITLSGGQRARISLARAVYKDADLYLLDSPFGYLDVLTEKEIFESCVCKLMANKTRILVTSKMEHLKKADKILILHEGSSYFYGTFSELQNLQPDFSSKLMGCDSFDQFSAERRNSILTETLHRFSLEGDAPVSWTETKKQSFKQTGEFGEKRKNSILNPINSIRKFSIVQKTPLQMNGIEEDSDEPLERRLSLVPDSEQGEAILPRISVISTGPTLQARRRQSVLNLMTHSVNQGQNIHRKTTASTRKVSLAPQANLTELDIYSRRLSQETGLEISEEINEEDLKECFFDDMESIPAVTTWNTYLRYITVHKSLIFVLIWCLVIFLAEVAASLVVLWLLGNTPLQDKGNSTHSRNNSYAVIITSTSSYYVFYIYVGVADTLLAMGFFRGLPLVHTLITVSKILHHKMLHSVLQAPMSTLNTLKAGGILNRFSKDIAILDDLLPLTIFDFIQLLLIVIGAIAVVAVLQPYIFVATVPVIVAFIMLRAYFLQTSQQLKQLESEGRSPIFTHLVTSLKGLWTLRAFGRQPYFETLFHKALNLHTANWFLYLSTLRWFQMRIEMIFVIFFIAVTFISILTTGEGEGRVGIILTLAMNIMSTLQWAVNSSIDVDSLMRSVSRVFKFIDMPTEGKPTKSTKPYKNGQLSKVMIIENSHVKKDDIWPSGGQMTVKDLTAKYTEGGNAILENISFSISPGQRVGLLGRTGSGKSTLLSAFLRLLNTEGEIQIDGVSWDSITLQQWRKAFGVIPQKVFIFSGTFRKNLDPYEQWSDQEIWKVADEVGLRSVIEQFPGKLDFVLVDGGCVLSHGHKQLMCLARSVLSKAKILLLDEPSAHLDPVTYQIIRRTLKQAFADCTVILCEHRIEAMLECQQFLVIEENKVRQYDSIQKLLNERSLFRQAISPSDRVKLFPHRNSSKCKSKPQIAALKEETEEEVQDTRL
T2 sequence (P13569 with tags, fused parts or gaps DEL508-508): as above

`CC1(C)CCN(c2ccc(Cl)cc2OC2(C(=O)NS(=O)(=O)c3cccc(N4CCC(O)(c5cccc(C(F)(F)F)c5)CC4)n3)CC2)CC1` [Example 10-2, 1-(5-chloro-2-(4,4-dimethylpiperidin-1-yl)phenoxy)-N-((6-(4-hydroxy-4-(3-(trifluoromethyl)phenyl)piperidin-1-yl)pyridin-2-yl)sulfonyl)cyclopropanecarboxamide]: in experiment [1], the Emax was 746% and the EC50 came out at 460 nM. Besides, in experiment [2], the “MTECC24 CFHBEC-Amax %” value was determined as 161.6% and the EC50 amounted to 182 nM.
The matching figures for `Cc1ccc(C2CCC(F)(F)C2)c(OC2(C(=O)NS(=O)(=O)c3cccc(N4CCC[C@@H](CO)C4)n3)CC2)c1` (single isomer, unassigned) [Example 4-7]: 314%, 2180 nM, 138% and 156 nM.
Turning to `Cc1ccc(-c2ccccc2C(F)(F)F)c(OC2(C(=O)NS(=O)(=O)c3cccc(N4CC[C@H](O)C4)n3)CC2)c1` [Example 5-14, (S)—N-((6-(3-Hydroxypyrrolidin-1-yl)pyridin-2-yl)sulfonyl)-1-((4-methyl-2′-(trifluoromethyl)-[1,1′-biphenyl]-2-yl)oxy)cyclopropane-1-carboxamide], in experiment [1], the Emax was found to be 196% and the EC50 was determined as 2150 nM. Further, in experiment [2], the “MTECC24 CFHBEC-Amax %” value amounted to 43% and the EC50 was determined as 50 nM.
For `Cc1ccc(C2CCC(C)(C)OC2)c(OC2(C(=O)NS(=O)(=O)c3cccc(N4CCC(O)(c5ccc(Cl)cc5)CC4)n3)CC2)c1` (single isomer, unassigned) [Example 11-1-1, N-((6-(4-(4-chlorophenyl)-4-hydroxypiperidin-1-yl)pyridin-2-yl)sulfonyl)-1-(2-(6,6-dimethyltetrahydro-2H-pyran-3-yl)-5-methylphenoxy)cyclopropane-1-carboxamide], in experiment [1], the “DelF508-CFTR-HRP Amax %” value is 920.6% and the response was half-maximal at 920 nM (EC50). For the same compound, in experiment [2], the “MTECC24 CFHBEC-Amax %” value was 148.8% and the EC50 is 394 nM.
With `Cc1ccc(C2CCCCCC2)c(OC2(C(=O)NS(=O)(=O)c3cccc(N)n3)CC2)c1` [Example 1-6, N-((6-Aminopyridin-2-yl)sulfonyl)-1-(2-cycloheptyl-5-methylphenoxy)cyclopropane-1-carboxamide], in experiment [1], the Emax turned out to be 765% and a half-maximal response (EC50) required 1310 nM. Further, in experiment [2], the “MTECC24 CFHBEC-Amax %” value was found to be 87% and the EC50 was 2 nM.
For `Cc1ccc(C2CCCCC2)c(OC2(C(=O)NS(=O)(=O)c3cccc(N[C@H]4C[C@H](O)C4)n3)CC2)c1` [Example 2-35, 1-(2-Cyclohexyl-5-methylphenoxy)-N-((6-((trans-3-hydroxycyclobutyl)amino)pyridin-2-yl)sulfonyl)cyclopropane-1-carboxamide], in that order: 235%, 2420 nM, 76% and 108 nM.
As for `Cc1ccc(C2CCCCC2)c(OC2(C(=O)NS(=O)(=O)c3cccc(N4CCOC(C)C4)n3)CC2)c1` (stereo not shown) [Example 2-51, 1-(2-Cyclohexyl-5-methylphenoxy)-N-((6-(2-methylmorpholino)pyridin-2-yl)sulfonyl)cyclopropane-1-carboxamide], in experiment [1], the Emax is 621% and the midpoint of the response, the EC50, lay at 1760 nM. Moreover, in experiment [2], the “MTECC24 CFHBEC-Amax %” value worked out at 85% and the EC50 came to 3 nM.
`Cc1ccc(C2CCC(F)(F)CC2)c(OC2(C(=O)NS(=O)(=O)c3cccc(N4CCC5(CC4)CC(=O)c4cc(F)ccc4N5)n3)CC2)c1` [Example 3-1, 1-(2-(4,4-Difluorocyclohexyl)-5-methylphenoxy)-N-((6-(6′-fluoro-4′-oxo-3′,4′-dihydro-1′H-spiro[piperidine-4,2′-quinolin]-1-yl)pyridin-2-yl)sulfonyl)cyclopropanecarboxamide]: in experiment [1], the Emax was determined as 184% and the concentration for a half-maximal effect (EC50) was determined as 3070 nM. For the same compound, in experiment [2], the “MTECC24 CFHBEC-Amax %” value was 34% and the EC50 was found to be 28 nM.
The matching figures for `O=C(NS(=O)(=O)c1cccc(N2CC[C@H](O)C2)n1)C1(Oc2cc(Cl)ccc2C2CC3(CCC3)C2)CC1` [Example 7-3, (S)-1-(5-chloro-2-(spiro[3.3]heptan-2-yl)phenoxy)-N-((6-(3-hydroxypyrrolidin-1-yl)pyridin-2-yl)sulfonyl)cyclopropanecarboxamide]: 794%, 1020 nM, 135.1% and 132 nM.
Consider `O=C(NS(=O)(=O)c1cccc(N2CC[C@H](O)C2)n1)C1(Oc2cc(Cl)ccc2N2CC3(CCC3)C2)CC1` [Example 9-20, (S)-1-(5-Chloro-2-(2-azaspiro[3.3]heptan-2-yl)phenoxy)-N-((6-(3-hydroxypyrrolidin-1-yl)pyridin-2-yl)sulfonyl)cyclopropanecarboxamide], for which, in experiment [1], the Emax was found to be 729% and the EC50 was 2910 nM. For the same compound, in experiment [2], the “MTECC24 CFHBEC-Amax %” value is given as 98.5% and the EC50 is 832 nM.
The matching figures for `C[C@@H]1CN(c2cccc(S(=O)(=O)NC(=O)C3(Oc4cc(Cl)ccc4C4CC5(CCC5)C4)CC3)n2)CCO1` [Example 7-13, (R)-1-(5-Chloro-2-(spiro[3.3]heptan-2-yl)phenoxy)-N-((6-(2-methylmorpholino)pyridin-2-yl)sulfonyl)cyclopropane-1-carboxamide]: 543%, 1290 nM, 81.1% and 213 nM.
For `Cc1ccc([C@H]2CC[C@@H](F)CC2)c(OC2(C(=O)NS(=O)(=O)c3cccc(N4CC(C)(O)C4)n3)CC2)c1` (single isomer, unassigned) [Example 4-23, 1-(2-(Cis-4-fluorocyclohexyl)-5-methylphenoxy)-N-((6-(3-hydroxy-3-methylazetidin-1-yl)pyridin-2-yl)sulfonyl)cyclopropane-1-carboxamide], in that order: 292%, 4160 nM, 138% and 167 nM.
With `CC(C)(C)C1CCC(Oc2ccc(Cl)cc2OC2(C(=O)NS(=O)(=O)c3cccc(N4CC[C@H](O)C4)n3)CC2)CC1` (stereo partly drawn) [Example 6-7, (S)-1-(2-((4-(tert-butyl)cyclohexyl)oxy)-5-chlorophenoxy)-N-((6-(3-hydroxypyrrolidin-1-yl)pyridin-2-yl)sulfonyl)cyclopropanecarboxamide], in experiment [1], the Emax came to 446% and the response was half-maximal at 760 nM (EC50). For the same compound, in experiment [2], the “MTECC24 CFHBEC-Amax %” value is listed as 203.9% and the EC50 turned out to be 116 nM.
